Measurements: patent US8481077B2, “Microbubbles and methods for oxygen delivery” (The Trustees of Columbia University in the City of New York, priority 2007, dated 2013)

Columns and labels:
[1] = main phase transition temperature, solid to fluid phase; cited from earlier work
[2] = Main phase transition temperature (Tm) and reduced temperature (TR) of microbubble lipids; type: physicochemical; conditions: reduced temperature T/Tm in Kelvin
Description: As used herein, the “phase transition temperature” (Tm) refers to the temperature at which lipid assemblies transition from a solid (crystalline) phase to a fluid (liquid crystalline) phase. For example, 1,2-Dipentadecanolyl-sn-Glycero-3-Phosphoeholine (C15) has a Tm of 33° C. Thus this lipid is in the solid phase at room temperature and transitions to the fluid phase when it is injected into the body.
Shell cohesion, as a function of acyl chain length, may be represented by the reduced temperature (TR), which is equal to the ratio of the ambient temperature (or “working temperature”) (T) to the main phase transition temperature (Tm) of the lipid (in Kelvin). For TR>1, the shell is in an expanded (fluid) state at the working temperature. For TR<1, the shell is in a condensed (solid) state at the working temperature. See Table 2 for a list of lipids with their corresponding main phase transition temperatures (Tm) and reduced temperatures (TR).

[3] = test system: desaturated, venous whole blood; conditions: 0.2 mL added to 2 mL blood, one inversion
Description: In one test tube, 0.2 mL of the microbubbles were added to 2 mL of desaturated, venous whole blood.
The test tubes were inverted once, and co-oximetry and blood gas values measurements were taken using a Radiometer ABL800 X blood gas machine.

SMILES | Tm (° C.) [1] [°C] | TR at 25° C. [2] | TR at 37° C. [2] | PCO2 [3] [mmHg] | PO2 [3] [mmHG] | oxygenated hemoglobin (oxyHb) [3] [%] | pH [3]
CCCCCCCCCCCC(=O)OC[C@H](COP(=O)([O-])OCC[N+](C)(C)C)OC(=O)CCCCCCCCCCC [C12, 1,2-Dilauroyl-sn-Glycero-3-Phosphocholine] | −1 | 1.10 | 1.14 | – | – | – | –
CCCCCCCCCCCCCC(=O)OC[C@H](COP(=O)([O-])OCC[N+](C)(C)C)OC(=O)CCCCCCCCCCCCC [C14, 1,2-Dimyristoyl-sn-Glycero-3-Phosphocholine] | 23 | 1.01 | 1.05 | – | – | – | –
CCCCCCCCCCCCCCC(=O)OC[C@H](COP(=O)([O-])OCC[N+](C)(C)C)OC(=O)CCCCCCCCCCCCCC [C15, 1,2-Dipentadecanoyl-sn-Glycero-3-Phosphocholine] | 33 | 0.97 | 1.01 | – | – | – | –
CCCCCCCCCCCCCCCC(=O)OC[C@H](COP(=O)([O-])OCC[N+](C)(C)C)OC(=O)CCCCCCCCCCCCCCC [C16, 1,2-Dipalmitoyl-sn-Glycero-3-Phosphocholine] | 41 | 0.95 | 0.99 | – | – | – | –
CCCCCCCCCCCCCCCCCC(=O)OC[C@H](COP(=O)(O)OCCN)OC(=O)CCCCCCCCCCCCCCCCC [C18, 1,2-Distearoyl-sn-Glycero-3-Phosphoethanolamine] | 55 | 0.91 | 0.95 | – | – | – | –
O=O [unencapsulated oxygen, oxygen] | – | – | – | 59 | 33 | 59 | 7.33
